Like-named read-outs stand apart in the source and are kept apart here. One block for each compound: values may come before it.
Key:
Assay in all cases: […]-ATP radiometric filter-binding kinase assay
Assay type in all cases: biochemical
CDK5/p35 = molecular target: T1, CDK5/p35 (Homo sapiens, UniProt Q00535)
T1 construct: purified CDK5/p35 complex

CDK9/cyclin K = molecular target: T2, CDK9/cyclin K (Homo sapiens, UniProt P50750)
T2 construct: purified CDK9/cyclin K complex; with Cyclin-K

CDK2/cyclin E = molecular target: T3, CDK2/cyclin E (Homo sapiens, UniProt P24941)
T3 construct: purified CDK/cyclin complex; with G1/S-specific cyclin-E1

CDK1/cyclin E = molecular target: T4, CDK1/cyclin E (Homo sapiens, UniProt P06493)
T4 construct: purified CDK/cyclin complex; with G1/S-specific cyclin-E1
T4 sequence (P06493 whole entry): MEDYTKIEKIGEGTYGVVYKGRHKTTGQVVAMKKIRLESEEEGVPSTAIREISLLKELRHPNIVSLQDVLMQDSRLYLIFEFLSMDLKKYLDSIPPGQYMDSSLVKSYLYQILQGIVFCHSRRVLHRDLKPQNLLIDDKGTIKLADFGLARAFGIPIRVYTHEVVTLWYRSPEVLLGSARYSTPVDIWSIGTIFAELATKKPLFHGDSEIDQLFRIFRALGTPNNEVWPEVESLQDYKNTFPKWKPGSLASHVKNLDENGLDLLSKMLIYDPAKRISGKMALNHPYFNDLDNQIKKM
T4 sequence (P24864 whole entry partner): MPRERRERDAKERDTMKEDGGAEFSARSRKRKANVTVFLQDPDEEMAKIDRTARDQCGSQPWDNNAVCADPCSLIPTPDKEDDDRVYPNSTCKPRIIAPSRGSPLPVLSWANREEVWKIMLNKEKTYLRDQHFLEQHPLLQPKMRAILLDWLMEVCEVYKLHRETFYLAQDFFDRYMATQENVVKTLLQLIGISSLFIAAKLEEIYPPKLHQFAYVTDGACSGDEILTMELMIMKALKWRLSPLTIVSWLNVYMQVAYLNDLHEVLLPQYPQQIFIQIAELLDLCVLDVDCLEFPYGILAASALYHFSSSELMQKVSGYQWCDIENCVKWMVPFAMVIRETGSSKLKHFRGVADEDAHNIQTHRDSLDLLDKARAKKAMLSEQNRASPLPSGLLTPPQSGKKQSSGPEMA

T1 sequence (Q00535 whole entry): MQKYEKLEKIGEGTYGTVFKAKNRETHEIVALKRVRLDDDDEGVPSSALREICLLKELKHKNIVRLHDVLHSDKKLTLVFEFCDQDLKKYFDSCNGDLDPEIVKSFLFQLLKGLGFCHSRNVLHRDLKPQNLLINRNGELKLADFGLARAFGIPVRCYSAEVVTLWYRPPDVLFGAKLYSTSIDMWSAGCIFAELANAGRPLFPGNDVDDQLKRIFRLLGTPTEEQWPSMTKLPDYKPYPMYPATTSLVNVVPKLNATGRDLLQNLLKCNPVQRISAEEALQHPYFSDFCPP
T1 sequence (Q15078 2-307 partner): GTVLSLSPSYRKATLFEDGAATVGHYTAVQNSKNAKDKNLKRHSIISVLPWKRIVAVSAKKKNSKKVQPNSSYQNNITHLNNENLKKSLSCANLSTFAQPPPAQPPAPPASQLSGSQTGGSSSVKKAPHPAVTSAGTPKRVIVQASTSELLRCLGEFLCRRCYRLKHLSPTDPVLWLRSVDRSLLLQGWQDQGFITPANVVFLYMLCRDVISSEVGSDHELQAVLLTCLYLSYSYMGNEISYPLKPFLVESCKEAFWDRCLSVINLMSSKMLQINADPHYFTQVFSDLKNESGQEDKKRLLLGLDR
T2 sequence (P50750 whole entry): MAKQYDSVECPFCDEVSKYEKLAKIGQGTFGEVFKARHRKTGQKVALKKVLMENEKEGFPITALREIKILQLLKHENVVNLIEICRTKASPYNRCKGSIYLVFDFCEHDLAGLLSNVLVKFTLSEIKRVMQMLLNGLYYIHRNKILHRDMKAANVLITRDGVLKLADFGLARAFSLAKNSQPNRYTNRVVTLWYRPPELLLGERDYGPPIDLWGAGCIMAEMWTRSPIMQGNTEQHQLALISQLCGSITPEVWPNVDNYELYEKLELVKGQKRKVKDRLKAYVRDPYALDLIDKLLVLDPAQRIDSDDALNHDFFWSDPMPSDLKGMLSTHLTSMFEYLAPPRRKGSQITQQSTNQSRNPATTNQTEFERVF
T2 sequence (O75909 whole entry partner): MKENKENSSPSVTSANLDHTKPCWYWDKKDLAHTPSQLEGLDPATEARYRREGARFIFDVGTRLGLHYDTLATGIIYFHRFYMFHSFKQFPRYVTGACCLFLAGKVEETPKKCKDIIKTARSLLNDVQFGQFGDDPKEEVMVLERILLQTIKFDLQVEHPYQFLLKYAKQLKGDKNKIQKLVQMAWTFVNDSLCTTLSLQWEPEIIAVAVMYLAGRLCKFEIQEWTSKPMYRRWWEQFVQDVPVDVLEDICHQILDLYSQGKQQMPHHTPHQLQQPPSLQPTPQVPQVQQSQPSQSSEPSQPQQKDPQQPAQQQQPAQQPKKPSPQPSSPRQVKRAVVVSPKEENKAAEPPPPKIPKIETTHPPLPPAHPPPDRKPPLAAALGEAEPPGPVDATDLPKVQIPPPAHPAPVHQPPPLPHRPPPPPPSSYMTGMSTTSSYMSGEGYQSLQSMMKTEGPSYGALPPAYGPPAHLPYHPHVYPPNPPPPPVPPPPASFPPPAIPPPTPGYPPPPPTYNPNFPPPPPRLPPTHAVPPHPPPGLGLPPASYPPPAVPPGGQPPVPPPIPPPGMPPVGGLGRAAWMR

IC50 (CDK5/p35; read-out: Compound 3): 79 µM
IC50 (CDK9/cyclin K; read-out: Compound 3): 4.3 µM
IC50 (CDK2/cyclin E; read-out: Compound 3): 1.2 µM
IC50 (CDK1/cyclin E; read-out: Compound 3): 30 µM
SMILES: CC(C(=O)Nc1cn(C(C)C)cn1)c1ccccc1 (racemic) [compound 3, Compound 3]

IC50 (CDK5/p35; read-out: Compound 1): 40 µM
IC50 (CDK9/cyclin K; read-out: Compound 1): 3 µM
IC50 (CDK2/cyclin E; read-out: Compound 1): 0.71 µM
IC50 (CDK1/cyclin E; read-out: Compound 1): 14 µM
SMILES: CC(C)n1cnc(NC(=O)Cc2ccccc2)c1 [compound 1, Compound 1]

IC50 (CDK5/p35; read-out: Compound 2): 0.88 µM
IC50 (CDK9/cyclin K; read-out: Compound 2): 1 µM
IC50 (CDK2/cyclin E; read-out: Compound 2): 0.16 µM
IC50 (CDK1/cyclin E; read-out: Compound 2): 0.72 µM
SMILES: CC(C)n1cnc(NC(=O)Cc2ccccc2O)c1 [compound 2, Compound 2]

IC50 (CDK5/p35; read-out: Compound 4): 20 µM
IC50 (CDK9/cyclin K; read-out: Compound 4): 0.88 µM
IC50 (CDK2/cyclin E; read-out: Compound 4): 0.27 µM
IC50 (CDK1/cyclin E; read-out: Compound 4): 6.2 µM
SMILES: CC(C)n1cnc(NC(=O)Cc2ccccn2)c1 [compound 4, Compound 4]
